# Reference: publication PMC8752476 (Journal of molecular biology, 2021)
# Assays:
# Abl^Y272H/A363V = experiment: Kinase assay, phosphorylation of CrkII, Abl Y272H/A363V; format: biochemical, human
# [1] = test system: Abl^FK (SH3-SH2 module and kinase domain); experiment: NMR; design: species or system human; conditions: GNF5 displaces imatinib from the myristoyl pocket
SMILES,kinase activity of Abl^Y272H/A363V in the presence of both imatinib and GNF5 (Abl^Y272H/A363V; 2 mM ATP),"effect on equilibrium, GNF5 added to imatinib-bound Abl^FK [1]","kinase activity of Abl^Y272H/A363V in the presence of imatinib (Abl^Y272H/A363V; 2 mM ATP, compared with Abl^Y272H/L359A)",effect on catalytic activity of Abl^Y272H/A363V at high ATP (Abl^Y272H/A363V; 20 mM ATP)
O=C(NCCO)c1cccc(-c2cc(Nc3ccc(OC(F)(F)F)cc3)ncn2)c1 [GNF5],strongly suppressed,shifts the population almost fully towards the inhibited state,,
Cc1ccc(NC(=O)c2ccc(CN3CCN(C)CC3)cc2)cc1Nc1nccc(-c2cccnc2)n1 [imatinib],,,significantly higher than the activity of Abl^Y272H/L359A,significantly increases the catalytic activity
